Results on one compound are retold here after article PMC8760490, “Discovery of novel furanylbenzamide inhibitors that target oncogenic tyrosine phosphatase SHP2 in leukemia cells” (The Journal of Biological Chemistry, 2021).

“Also recorded” adds a separate entry of the source.

This assay addresses T1, SHP2cat (Homo sapiens, UniProt Q06124).
T1 construct: the SHP2 catalytic domain (SHP2cat; residues 248–527); made in house
T1 sequence (Q06124 248-527): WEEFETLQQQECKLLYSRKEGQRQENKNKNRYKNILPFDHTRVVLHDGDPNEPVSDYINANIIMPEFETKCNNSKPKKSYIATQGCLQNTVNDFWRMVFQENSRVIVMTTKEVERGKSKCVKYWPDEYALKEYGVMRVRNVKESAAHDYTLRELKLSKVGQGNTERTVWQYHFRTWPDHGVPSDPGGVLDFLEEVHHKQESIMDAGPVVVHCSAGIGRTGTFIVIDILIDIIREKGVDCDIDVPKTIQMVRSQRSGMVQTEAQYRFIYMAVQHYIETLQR
Briefly: Jump-dilution inhibition assay. It counts as biochemical. The note with it: 10× preincubation 10 min, 10× jump dilution. Here is the method: PTPs contain a highly nucleophilic cysteine that is essential for catalytic activity but is susceptible to oxidation and covalent modifications, which abrogate its nucleophilic function and phosphatase activity ([26]). Because the methylenebenzothiophenone moiety of our inhibitors could potentially act as a Michael acceptor and thus covalently bind to the catalytic cysteine, we tested whether the observed inhibition of SHP2 was dependent on the preincubation time of inhibitor and enzyme. An irreversible covalent inhibitor may show time-dependent inhibition, with increased potency at longer incubation times. […] To test for time-dependent inhibition, SBI-2130 at ten different concentrations was preincubated with SHP2-E76K for 1, 5, 10, 20, or 60 min, before the DiFMUP substrate was added to the reaction mixture and initial rates were recorded (Fig. 3C). […]
SBI-2130 was tested for reversibility of inhibition in a jump-dilution experiment using SHP2cat. […] The enzyme reaction was started by the addition of 5 μl of DiFMUP working solution (100 μM in 50 mM Bis–Tris, pH 6.0, 50 mM NaCl, 0.5 mM EDTA, and 0.01% Tween-20), and fluorescence intensity was measured in kinetic mode (every minute for 10 min) using a Tecan Spark Multimode Microplate Reader as described previously. […] The initial rates were determined from the linear progression curves of the SHP2cat reaction. […]

On to `Nc1ccc(NC(=O)c2cc(-c3ccc(/C=C4\Sc5ccccc5C4=O)o3)ccc2O)cc1` [SBI-2130, (Z)-N-(4-Aminophenyl)-2-hydroxy-5-(5-((3-oxobenzo[b]thiophen-2(3H)-ylidene)methyl)furan-2-yl)benzamide], for which the “reversibility: IC50 curves jump dilution vs regular dose–response” value was “reversible inhibitor; also recorded: practically identical”.
